Experimental data published in patent US8362015B2, “Aminoacyl prodrug derivatives and medicaments for treatment of thromboembolic disorders” (Bayer Intellectual Property GmbH, priority 2006, dated 2013).
Where a name gives a salt, the structure may show the parent alone.

Experiments:
[1] = Stability in buffer at various pH values (HPLC, unchanged test substance); assay type: physicochemical; conditions: acetonitrile/buffer 1:1
Protocol: 0.3 mg of the test substance is weighed into a 2 ml HPLC vial and 0.5 ml of acetonitrile is added. The substance is dissolved by putting the sample vessel in an ultrasonic bath for about 10 seconds. Then 0.5 ml of the respective buffer solution is added, and the sample is again treated in the ultrasonic bath.
Buffer solutions employed: • pH 4.0: 1 liter of Millipore water is adjusted to pH 4.0 with 1 N hydrochloric acid; • pH 7.4: 90 g of sodium chloride, 13.61 g of potassium dihydrogen phosphate and 83.35 g of 1 M sodium hydroxide solution are made up to 1 liter with Millipore water and then diluted 1:10.
5 μl portions of the test solution are analysed by HPLC for their content of unchanged test substance every hour over a period of 24 hours at 25° C. The percentage areas of the appropriate peaks are used for quantification.
Agilent 1100 with DAD (G1314A), binary pump (G1312A), autosampler (G1329A), column oven (G1316A), thermostat (G1330A); column: Kromasil 100 C18, 60 mm×2.1 mm, 3.5 μm; column temperature: 30° C.; eluent A: water+5 ml of perchloric acid/liter, eluent B: acetonitrile; gradient: 0-1.0 min 98% A, 2% B→1.0-9.0 min 2% A, 98% B; 9.0-13.0 min 2% A, 98% B; 13.0-13.5 min 98% A, 2% B; 13.5-15.0 98% A, 2% B; flow rate: 0.75 ml/min; UV detection: 210 nm.
The ratios of the peak areas (F) at the respective time points in relation to the peak areas at the starting time are shown in Table 2 for representative exemplary embodiments: […]

[2] = Determination of the solubility in dilute hydrochloric acid (pH 4); assay type: physicochemical; conditions: aqueous buffer, thermodynamic from solid, room temperature, shaken 24 h
Protocol: The test substance is suspended in water or dilute hydrochloric acid (pH 4). This suspension is shaken at room temperature for 24 h. After ultracentrifugation at 224 000 g for 30 min, the supernatant is diluted with DMSO and analysed by HPLC. A two-point calibration plot of the test compound in DMSO is used for quantification.
Agilent 1100 with DAD (G1315A), quat. pump (G1311A), autosampler CTC HTS PAL, degasser (G1322A) and column thermostat (G1316A); column: Kromasil C18, 60×2.1 mm, 3.5 μm; temperature: 30° C.; eluent A: water+5 ml of perchloric acid/liter, eluent B: acetonitrile; flow rate: 0.7 ml/min; gradient: 0-0.5 min 98% A, 2% B; ramp 0.5-4.5 min 10% A, 90% B; 4.5-6 min 10% A, 90% B; ramp 6.5-6.7 min 98% A, 2% B; 6.7-7.5 min 98% A, 2% B.

For `CC(C)[C@H](N)C(=O)SCCCCC(=O)N(C[C@H]1CN(c2ccc(N3CCOCC3=O)cc2)C(=O)O1)C(=O)c1ccc(Cl)s1` [Example 4, S-(5-{[(5-Chloro-2-thienyl)carbonyl]({(5S)-2-oxo-3-[4-(3-oxomorpholin-4-yl)phenyl]-1,3-oxazolidin-5-yl}methyl)amino}-5-oxopentyl)(2S)-2-amino-3-methylbutanethioate hydrochloride], which “% test substance after 4 h [F(t = 4 h) × 100/F(t = 0 h)]” value (“% test substance after 4 h” below) ([1]; buffer pH 4, 25° C.) is on record?
Its value is 100%.

What about the “% test substance after 24 h [F(t = 24 h) × 100/F(t = 0 h)]” value (shortened to “% test substance after 24 h”) ([1]; buffer pH 4, 25° C.) of the same molecule?
Its value is 100%.

What about the “% test substance after 4 h” value ([1]; buffer pH 7.4, 25° C.) of the same molecule?
Its value is 92%.

And the “% test substance after 24 h” value ([1]; buffer pH 7.4, 25° C.)?
The value was 77%.

With `CC(C)[C@H](N)C(=O)OCCCCC(=O)N(C[C@H]1CN(c2ccc(N3CCOCC3=O)cc2)C(=O)O1)C(=O)c1ccc(Cl)s1` [Example 3, hydrochloride] as the molecule, how does the “% test substance after 4 h” value ([1]; buffer pH 4, 25° C.) read?
The value was 100%.

And the “% test substance after 24 h” value ([1]; buffer pH 4, 25° C.)?
Its value is 101%.

What about the “% test substance after 4 h” value ([1]; buffer pH 7.4, 25° C.) of the same molecule?
The value was 100%.

And the “% test substance after 24 h” value ([1]; buffer pH 7.4, 25° C.)?
Its value is 100%.

What about the solubility at 24 h [2] of the same molecule?
The solubility at 24 h was greater than 3500 µg/mL.

Which “% test substance after 4 h” value ([1]; buffer pH 4, 25° C.) does the source give for `NCCCC[C@H](N)C(=O)NCCCCC(=O)N(C[C@H]1CN(c2ccc(N3CCOCC3=O)cc2)C(=O)O1)C(=O)c1ccc(Cl)s1` [Example 14, N-(5-{[(5-Chloro-2-thienyl)carbonyl]({(5S)-2-oxo-3-[4-(3-oxomorpholin-4-yl)phenyl]-1,3-oxazolidin-5-yl}methyl)amino}-5-oxopentyl)-L-lysinamide hydrochloride] here?
Its value is 100%.

And the “% test substance after 24 h” value ([1]; buffer pH 4, 25° C.)?
The value was 100%.

What about the “% test substance after 4 h” value ([1]; buffer pH 7.4, 25° C.) of the same molecule?
The value was 98%.

And the “% test substance after 24 h” value ([1]; buffer pH 7.4, 25° C.)?
Its value is 88%.

And the solubility at 24 h [2]?
Its solubility at 24 h is 1900 µg/mL.

With `N[C@@H](Cc1c[nH]cn1)C(=O)NCCCCC(=O)N(C[C@H]1CN(c2ccc(N3CCOCC3=O)cc2)C(=O)O1)C(=O)c1ccc(Cl)s1` [Example 12, N-(5-{[(5-Chloro-2-thienyl)carbonyl]({(5S)-2-oxo-3-[4-(3-oxomorpholin-4-yl)phenyl]-1,3-oxazolidin-5-yl}methyl)amino}-5-oxopentyl)-L-histidinamide hydrochloride] as the molecule, how does the “% test substance after 4 h” value ([1]; buffer pH 4, 25° C.) read?
The value was 100%.

What about the “% test substance after 24 h” value ([1]; buffer pH 4, 25° C.) of the same molecule?
Its value is 101%.

And the “% test substance after 4 h” value ([1]; buffer pH 7.4, 25° C.)?
The value was 99%.

What about the “% test substance after 24 h” value ([1]; buffer pH 7.4, 25° C.) of the same molecule?
The value was 93%.

What about the solubility at 24 h [2] of the same molecule?
Its solubility at 24 h is greater than 3000 µg/mL.

Which “% test substance after 4 h” value ([1]; buffer pH 4, 25° C.) does the source give for `NCCCC[C@H](N)C(=O)SCCCCC(=O)N(C[C@H]1CN(c2ccc(N3CCOCC3=O)cc2)C(=O)O1)C(=O)c1ccc(Cl)s1` [Example 6, S-(5-{[(5-Chloro-2-thienyl)carbonyl]({(5S)-2-oxo-3-[4-(3-oxomorpholin-4-yl)phenyl]-1,3-oxazolidin-5-yl}methyl)amino}-5-oxopentyl)(2S)-2,6-diaminohexanethioate dihydrochloride] here?
Its value is 99%.

And the “% test substance after 24 h” value ([1]; buffer pH 4, 25° C.)?
The value was 99%.

And the “% test substance after 4 h” value ([1]; buffer pH 7.4, 25° C.)?
Its value is 90%.

And the “% test substance after 24 h” value ([1]; buffer pH 7.4, 25° C.)?
Its value is 53%.

What does the source list for `CC(C)[C@H](N)C(=O)SCCCC(=O)N(C[C@H]1CN(c2ccc(N3CCOCC3=O)cc2)C(=O)O1)C(=O)c1ccc(Cl)s1` [Example 8, S-(5-{[(5-Chloro-2-thienyl)carbonyl]({(5S)-2-oxo-3-[4-(3-oxomorpholin-4-yl)phenyl]-1,3-oxazolidin-5-yl}methyl)amino}-4-oxobutyl)(2S)-2-amino-3-methylbutanethioate hydrochloride]?
% test substance after 4 h [F(t = 4 h) × 100/F(t = 0 h)] ([1]; buffer pH 4, 25° C.): 100%; % test substance after 24 h [F(t = 24 h) × 100/F(t = 0 h)] ([1]; buffer pH 4, 25° C.): 100%; % test substance after 4 h [F(t = 4 h) × 100/F(t = 0 h)] ([1]; buffer pH 7.4, 25° C.): 86%; % test substance after 24 h [F(t = 24 h) × 100/F(t = 0 h)] ([1]; buffer pH 7.4, 25° C.): 48%

Which “% test substance after 4 h” value ([1]; buffer pH 4, 25° C.) does the source give for `NCC(=O)SCCCCC(=O)N(C[C@H]1CN(c2ccc(N3CCOCC3=O)cc2)C(=O)O1)C(=O)c1ccc(Cl)s1` [Example 5, S-(5-{[(5-Chloro-2-thienyl)carbonyl]({(5S)-2-oxo-3-[4-(3-oxomorpholin-4-yl)phenyl]-1,3-oxazolidin-5-yl}methyl)amino}-5-oxopentyl)aminoethanethioate hydrochloride] here?
The value was 100%.

And the “% test substance after 24 h” value ([1]; buffer pH 4, 25° C.)?
Its value is 100%.

What about the “% test substance after 4 h” value ([1]; buffer pH 7.4, 25° C.) of the same molecule?
Its value is 96%.

And the “% test substance after 24 h” value ([1]; buffer pH 7.4, 25° C.)?
The value was 84%.

For `C[C@H](N)C(=O)SCCCCC(=O)N(C[C@H]1CN(c2ccc(N3CCOCC3=O)cc2)C(=O)O1)C(=O)c1ccc(Cl)s1` [Example 7, S-(5-{[(5-Chloro-2-thienyl)carbonyl]({(5S)-2-oxo-3-[4-(3-oxomorpholin-4-yl)phenyl]-1,3-oxazolidin-5-yl}methyl)amino}-5-oxopentyl)(2S)-2-aminopropanethioate hydrochloride], which “% test substance after 4 h” value ([1]; buffer pH 4, 25° C.) is on record?
Its value is 100%.

What about the “% test substance after 24 h” value ([1]; buffer pH 4, 25° C.) of the same molecule?
The value was 101%.

What about the “% test substance after 4 h” value ([1]; buffer pH 7.4, 25° C.) of the same molecule?
The value was 97%.

And the “% test substance after 24 h” value ([1]; buffer pH 7.4, 25° C.)?
The value was 84%.

What about the solubility at 24 h [2] of the same molecule?
The solubility at 24 h was greater than 500 µg/mL.

Which “% test substance after 4 h” value ([1]; buffer pH 4, 25° C.) does the source give for `NCC(=O)OCCCCC(=O)N(C[C@H]1CN(c2ccc(N3CCOCC3=O)cc2)C(=O)O1)C(=O)c1ccc(Cl)s1` [Example 2, hydrochloride] here?
Its value is 101%.

What about the “% test substance after 24 h” value ([1]; buffer pH 4, 25° C.) of the same molecule?
The value was 101%.

And the “% test substance after 4 h” value ([1]; buffer pH 7.4, 25° C.)?
Its value is 99%.

What about the “% test substance after 24 h” value ([1]; buffer pH 7.4, 25° C.) of the same molecule?
The value was 94%.

What does the source list for `O=C(NCCCCC(=O)N(C[C@H]1CN(c2ccc(N3CCOCC3=O)cc2)C(=O)O1)C(=O)c1ccc(Cl)s1)[C@@H]1CCCN1` [Example 11, N-(5-{[(5-Chloro-2-thienyl)carbonyl]({(5S)-2-oxo-3-[4-(3-oxomorpholin-4-yl)phenyl]-1,3-oxazolidin-5-yl}methyl)amino}-5-oxopentyl)-L-prolineamide hydrochloride]?
% test substance after 4 h [F(t = 4 h) × 100/F(t = 0 h)] ([1]; buffer pH 4, 25° C.): 101%; % test substance after 24 h [F(t = 24 h) × 100/F(t = 0 h)] ([1]; buffer pH 4, 25° C.): 101%; % test substance after 4 h [F(t = 4 h) × 100/F(t = 0 h)] ([1]; buffer pH 7.4, 25° C.): 100%; % test substance after 24 h [F(t = 24 h) × 100/F(t = 0 h)] ([1]; buffer pH 7.4, 25° C.): 99%
